Values of other authors, collected in US20100055173A1, “RELEASE OF STATINS IN THE INTESTINE” (priority 2006, published 2010).
Read-outs that look alike come from different tables or passages of the source.

Key:
HMG-CoA reductase = biological target: T1, HMG-CoA reductase (Homo sapiens, UniProt P04035); conditions: considering the beta-hydroxy acid form as the drug
T1 sequence (P04035 1-888): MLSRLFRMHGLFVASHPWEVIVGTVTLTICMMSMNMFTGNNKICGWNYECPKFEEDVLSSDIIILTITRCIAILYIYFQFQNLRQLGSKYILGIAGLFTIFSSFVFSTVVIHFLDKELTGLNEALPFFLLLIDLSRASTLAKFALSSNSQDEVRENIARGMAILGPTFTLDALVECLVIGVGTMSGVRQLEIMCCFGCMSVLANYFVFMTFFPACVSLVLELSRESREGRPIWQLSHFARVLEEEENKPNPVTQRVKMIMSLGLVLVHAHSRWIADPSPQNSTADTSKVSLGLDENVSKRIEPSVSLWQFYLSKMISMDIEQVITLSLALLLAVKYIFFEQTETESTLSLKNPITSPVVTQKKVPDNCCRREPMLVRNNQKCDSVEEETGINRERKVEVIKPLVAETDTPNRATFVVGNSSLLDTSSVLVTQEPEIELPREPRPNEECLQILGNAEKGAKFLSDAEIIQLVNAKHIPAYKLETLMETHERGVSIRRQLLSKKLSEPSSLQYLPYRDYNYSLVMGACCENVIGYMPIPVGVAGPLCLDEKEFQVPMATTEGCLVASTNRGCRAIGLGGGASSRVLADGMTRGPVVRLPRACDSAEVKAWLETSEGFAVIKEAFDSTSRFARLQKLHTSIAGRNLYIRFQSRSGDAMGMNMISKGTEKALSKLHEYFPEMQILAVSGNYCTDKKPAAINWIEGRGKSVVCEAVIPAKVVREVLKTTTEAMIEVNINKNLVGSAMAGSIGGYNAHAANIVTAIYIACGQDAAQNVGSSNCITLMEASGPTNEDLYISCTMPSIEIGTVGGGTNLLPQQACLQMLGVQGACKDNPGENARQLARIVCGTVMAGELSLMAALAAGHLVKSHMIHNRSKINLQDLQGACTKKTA

plasma proteins = conditions: primarily to albumin

SMILES | HMG-CoA reductase activity retained (HMG-CoA reductase) | bound to plasma proteins (plasma proteins) | bound to plasma proteins (plasma proteins; listed as Simvastatin)
CCC(C)(C)C(=O)OC1CC(C)(O)C=C2C=CC(C)C(CCC3CC(O)CC(=O)O3)C21 (stereo not drawn) [6-beta-hydroxy simvastatin] | ~50% |  | 
CCC(C)(C)C(=O)O[C@H]1C[C@@H](CO)C=C2C=C[C@H](C)[C@H](CC[C@@H]3C[C@@H](O)CC(=O)O3)[C@H]21 [6-beta-hydroxymethyl, 6-beta-hydroxymethyl simvastatin] | approximately 40% |  | 
CCC(C)(C)C(=O)O[C@H]1C[C@@H](C)C=C2C=C[C@H](C)[C@H](CC[C@@H](O)C[C@@H](O)CC(=O)O)[C@H]21 [open hydroxyl acid form, β-hydroxyacid-simvastatin] |  | 94.5% | 
CCC(C)(C)C(=O)O[C@H]1C[C@@H](C)C=C2C=C[C@H](C)[C@H](CC[C@@H]3C[C@@H](O)CC(=O)O3)[C@H]21 [simvastatin] |  | More than 98% | more than 95%
